Reference: US8513260B2, “Pyrazinylpyrazoles” (Bayer CropScience AG, priority 2009, dated 2013)

Assays:
[1] = test system: Boophilus microplus; experiment: Boophilus microplus test (BOOPMI injection); type: in vivo; settings: 20 μg animal; injection into the abdomen; after 7 days, laying of fertile eggs
Method: Boophilus microplus Test (BOOPMI Injection) Solvent: dimethyl sulphoxide To prepare an appropriate active ingredient formulation, 10 mg of active ingredient are mixed with 0.5 ml of solvent and the concentrate is diluted with solvent to the desired concentration. The active ingredient solution is injected into the abdomen (Boophilus microplus), and the animals are transferred into dishes and stored in a climate-controlled room. The efficacy is assessed by laying of fertile eggs. After 7 days, the efficacy in % is determined. 100% means that none of the ticks has laid any fertile eggs.

[2] = test system: red spider mite (Tetranychus urticae); experiment: Tetranychus test, OP-resistant (TETRUR spray treatment); type: in vivo; settings: 500 g/ha, bean leaf discs, after 6 days; for pest or weed control at 500 g/ha: Tetranychus urticae, foliar, 144 h, read-out: efficacy
Method: Tetranychus Test, OP-Resistant (TETRUR Spray Treatment)
Solvent: 78.0 parts by weight of acetone • • 1.5 parts by weight of dimethylformamide
Emulsifier: 0.5 part by weight of alkylaryl polyglycol ether
To prepare an appropriate active ingredient preparation, 1 part by weight of active ingredient is mixed with the stated amounts of solvent and emulsifier, and the concentrate is diluted with emulsifier-containing water to the desired concentration. Discs of bean leaves (Phaseolus vulgaris) infested by all stages of the red spider mite (Tetranychus urticae) are sprayed with an active ingredient preparation of the desired concentration. After 6 days, the efficacy in % is determined. 100% means that all spider mites have been killed; 0% means that none of the spider mites have been killed.

[3] = test system: larvae of the mustard beetle (Phaedon cochleariae); experiment: Phaedon test (PHAECO spray treatment); type: in vivo; settings: Chinese cabbage discs, after 7 days; for efficacy: 500 g/ha; for pest or weed control at 500 g/ha: Phaedon cochleariae, 168 h, read-out: efficacy
Method: Phaedon Test ([…] Spray Treatment) Solvent: 78.0 parts by weight of acetone • • 1.5 parts by weight of dimethylformamide Emulsifier: 0.5 part by weight of alkylaryl polyglycol ether To prepare an appropriate active ingredient preparation, 1 part by weight of active ingredient is mixed with the stated amounts of solvent and emulsifier, and the concentrate is diluted with emulsifier-containing water to the desired concentration. Discs of Chinese cabbage (Brassica pekinensis) are sprayed with an active ingredient preparation of the desired concentration and, after drying, populated with larvae of the mustard beetle (Phaedon cochleariae). After 7 days, the efficacy in % is determined. 100% means that all beetle larvae have been killed; 0% means that none of the beetle larvae have been killed.

[4] = test system: adult Musca domestica; experiment: Musca domestica test; type: in vivo; settings: 100 ppm; after 2 days
Method: Musca domestica Test Solvent: dimethyl sulphoxide To prepare an appropriate active ingredient formulation, 10 mg of active ingredient are mixed with 0.5 ml of dimethyl sulphoxide and the concentrate is diluted with water to the desired concentration. Vessels containing a sponge treated with the active ingredient preparation of the desired concentration are populated with adult Musca domestica. After 2 days, the kill in % is determined. 100% means that all of the flies have been killed; 0% means that none of the flies have been killed.

[5] = test system: caterpillars of the armyworm (Spodoptera frugiperda); experiment: Spodoptera frugiperda test (SPODFR spray treatment); type: in vivo; settings: maize leaf discs, after 7 days; for efficacy: 500 g/ha; for pest or weed control at 500 g/ha: Spodoptera frugiperda, foliar, 168 h, read-out: efficacy
Method: Spodoptera frugiperda Test (SPODFR Spray Treatment) Solvent: 78.0 parts by weight of acetone • • 1.5 parts by weight of dimethylformamide Emulsifier: 0.5 part by weight of alkylaryl polyglycol ether To prepare an appropriate active ingredient preparation, 1 part by weight of active ingredient is mixed with the stated amounts of solvent and emulsifier, and the concentrate is diluted with emulsifier-containing water to the desired concentration. Discs of maize leaves (Zea mays) are sprayed with an active ingredient preparation of the desired concentration and, after drying, populated with caterpillars of the armyworm (Spodoptera frugiperda). After 7 days, the efficacy in % is determined. 100% means that all caterpillars have been killed; 0% means that none of the caterpillars have been killed.

[6] = test system: unfed adult fleas (Ctenocephalides felis); experiment: Ctenocephalides felis test (CTECFE); type: in vivo; settings: 100 ppm in citrated cow's blood; after 2 days
Method: Ctenocephalides felis Test ([…]) Solvent: 1 part by weight of dimethyl sulphoxide For the purpose of preparing an appropriate active ingredient formulation, 10 mg of active ingredient are mixed with 0.5 ml of dimethyl sulphoxide. A portion of the concentrate is diluted with citrated cow's blood and the desired concentration is established. About 20 unfed adult fleas (Ctenocephalides felis) are introduced into a chamber closed at the top and bottom with gauze. A metal cylinder, the bottom of which is closed with Parafilm, is placed onto the chamber. The cylinder contains the blood/active ingredient preparation, which can be imbibed by the fleas through the Parafilm membrane. After 2 days, the kill in % is determined. 100% means that all fleas have been killed; 0% means that none of the fleas have been killed.

[7] = test system: green peach aphid (Myzus persicae); experiment: Myzus test (MYZUPE spray treatment); type: in vivo; settings: Chinese cabbage discs, after 6 days; for efficacy: 500 g/ha; for pest or weed control at 500 g/ha: Myzus persicae, 144 h, read-out: efficacy
Method: Myzus Test (MYZUPE Spray Treatment) Solvent: 78 parts by weight of acetone • • 1.5 parts by weight of dimethylformamide Emulsifier: 0.5 part by weight of alkylaryl polyglycol ether To prepare an appropriate active ingredient preparation, 1 part by weight of active ingredient is mixed with the stated amounts of solvent and emulsifier, and the concentrate is diluted with emulsifier-containing water to the desired concentration. Discs of Chinese cabbage (Brassica pekinensis) infested by all stages of the green peach aphid (Myzus persicae) are sprayed with an active ingredient preparation of the desired concentration. After 6 days, the efficacy in % is determined. 100% means that all of the aphids have been destroyed; 0% means that none of the aphids have been destroyed.

[8] = logP by HPLC on reversed-phase columns (C 18), EEC Directive 79/831 Annex V.A8; type: physicochemical; settings: acidic range pH 2.7, 0.1% aqueous formic acid and acetonitrile; for chromatographic logP: reversed-phase C18 HPLC column, pH 2.7, * LC-MS, read-out: log P
Excerpt: [table] The calibration is effected with unbranched alkan-2-ones (having 3 to 16 carbon atoms) with known logP values (logP values determined on the basis of the retention times by linear interpolation between two successive alkanones).

chromatographic logP [8]	SMILES	efficacy [1]	efficacy [2]	efficacy [3]	efficacy [5]	efficacy (kill) [6]	efficacy [7]	pest or weed control at 500 g/ha [2]	pest or weed control at 500 g/ha [3]	pest or weed control at 500 g/ha [5]	pest or weed control at 500 g/ha [7]	other results
	CCC(OC)c1nn(-c2nccnc2OC)c(N)c1-c1ccc(Cl)c(Cl)c1 (stereo not shown) [Ex. 3]	100%	100%	100%								
	COc1nccnc1-n1nc(C(F)(F)F)c(-c2cc(Cl)cc(Cl)c2)c1N [Ex. 6]	100%		100%	83%	90%						efficacy (kill) [4]: 80%
	C=Cc1nn(-c2nccnc2OC)c(N)c1-c1cc(Cl)cc(C(F)(F)F)c1 [Ex. 9]	100%	100%	100%	100%		100%					
	COc1nccnc1-n1nc(C(F)(F)F)c(-c2cc(Cl)cc(C(F)(F)F)c2)c1N [Ex. 10]	100%				90%						efficacy (kill) [4]: 100%
	CCOc1nccnc1-n1nc(C(F)(F)F)c(-c2cc(Cl)cc(C(F)(F)F)c2)c1N [Ex. 12]	100%	90%	100%		90%						efficacy (kill) [4]: 100%
	COc1nccnc1-n1nc(C(F)(F)C(F)(F)F)c(-c2cc(F)cc(C(F)(F)F)c2)c1N [Ex. 21]	100%	100%	100%	100%		100%					efficacy (kill) [4]: 100%
	CSc1nccnc1-n1nc(C(F)(F)F)c(-c2cc(Cl)cc(C(F)(F)F)c2)c1N [Ex. 28]	100%		100%	100%							log P ([8]; * LC-MS): 4.9*
	COc1nccnc1-n1nc(C(F)(F)F)c(-c2cc(Cl)cc(C(F)(F)F)c2)c1NCc1ccccc1 [Ex. 33]		90%	100%			80%					
	COc1ccc(CNc2c(-c3cc(Cl)cc(C(F)(F)F)c3)c(C(F)(F)F)nn2-c2nccnc2OC)cc1 [Ex. 41]			100%		80%	90%					
	COc1nccnc1-n1nc(C(F)(F)C(F)(F)C(F)(F)F)c(-c2cc(Cl)cc(C(F)(F)F)c2)c1N [Ex. 46]	100%	80%	100%	100%	80%	80%					
	COc1nccnc1-n1nc(C(F)(F)C(F)F)c(-c2cc(Cl)cc(C(F)(F)F)c2)c1N [Ex. 59]		100%	100%	83%		100%					
3.18	COc1nccnc1-n1nc(C(F)(F)F)c(-c2cc(Br)c3c(c2)OCO3)c1N [Ex. 74]							90%	100%	100%	90%	
2.96	COc1nccnc1-n1nc(C(C)C)c(-c2cc(Cl)c3c(c2)OCO3)c1N [Ex. 77]							100%	100%	100%	100%	
	COc1cc(-c2c(C(F)(F)F)nn(-c3nccnc3OC)c2N)cc(C(F)(F)F)c1OC [Ex. 89]	100%		100%	100%	100%						efficacy (kill) [4]: 80%
	C=CCN(CC=C)c1c(-c2cc(Cl)cc(C(F)(F)F)c2)c(C(F)(F)F)nn1-c1nccnc1OC [Ex. 103]						80%					
	COc1nccnc1-n1nc(C(F)(F)F)c(-c2cc(Cl)c3c(c2)COCO3)c1N [Ex. 135]	100%		100%	80%	100%						
	COc1nccnc1-n1nc(C(F)(F)F)c(-c2cc(Cl)c3c(c2)OCCCO3)c1N [Ex. 136]	100%		100%		100%						
2.66	COc1nccnc1-n1nc(C(F)(F)F)c(-c2cc(C#N)c3c(c2)OCO3)c1N [Ex. 150]							100%	100%	100%	100%	
	C=C(C)c1nn(-c2nccnc2OC)c(N)c1-c1cc(Cl)cc(Cl)c1 [Ex. 167]		100%	100%			100%					
	COc1nccnc1-n1nc(C(C)(C)F)c(-c2cc(Cl)cc(Cl)c2)c1N [Ex. 168]		100%	100%	100%		100%					
3.26	COc1nccnc1-n1nc(C(F)(F)Cl)c(-c2cc(Cl)c3c(c2)OCO3)c1N [Ex. 169]							100%	100%	100%	100%	
2.96	CCOc1nccnc1-n1nc(CC)c(-c2cc(Cl)c3c(c2)OCO3)c1N [Ex. 170]							100%	100%	100%	100%	
3.48	CCOc1nccnc1-n1nc(C(F)(F)F)c(-c2cc(Cl)c3c(c2)OCO3)c1N [Ex. 171]							100%	100%	100%	100%	
3.01	CCOc1nccnc1-n1nc(C(F)(F)F)c(-c2cc(C#N)c3c(c2)OCO3)c1N [Ex. 172]							100%	100%	100%	100%	
2.91	COc1nccnc1-n1nc(C(F)(F)F)c(-c2cc(F)c3c(c2)OCO3)c1N [Ex. 174]							100%	100%	100%	100%	
3.27	CCOc1nccnc1-n1nc(C(F)(F)F)c(-c2cc(F)c3c(c2)OCO3)c1N [Ex. 175]							100%	100%	100%	100%	
